Measurements from PubChem BioAssay (NCI).
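Tested at 5 concentrations; 48 h exposure; 96-well plates; endpoints linearly interpolated, else capped at highest concentration. TGI marks complete inhibition of growth.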

Experiments:
Assay in all cases: NCI tumour cell line growth inhibition, 48 h
[1] = tested on: LXFL 529 NSCLC
[2] = tested on: SNB-78 CNS
[3] = tested on: XF 498 CNS
[4] = tested on: DMS 114 small cell lung
[5] = tested on: SN12K1 renal
[6] = tested on: P388 leukemia
[7] = tested on: HOP-18 NSCLC
[8] = tested on: P388/ADR leukemia

Row | Compound | TGI [1] | TGI [2] | TGI [3] | TGI [4] | TGI [5] | TGI [6] | TGI [7] | TGI [8]
1 | Cn1c(=O)n(C2(C)C[Se]C2)c2ccccc21 | > 100 µM | > 100 µM |  |  |  |  |  | 
2 | N#Cc1c2ccccc2cn1-c1ccc(F)cc1 | > 100 µM |  | > 100 µM | > 100 µM |  |  |  | 
3 | O=C(O)CCC(NC(=O)c1ccc(Nc2nc3cc(C(F)(F)F)ccc3nc2-c2ccccc2)cc1)C(=O)O (stereo not given) |  | > 100 µM | > 100 µM | > 100 µM | > 100 µM | > 100 µM | > 100 µM | > 100 µM
4 | CC1(C)N=C(N)N=C(N)N1c1ccc(CCc2ccccc2)cc1 |  | > 100 µM |  | 52.5 µM | > 100 µM | 12.3 µM | 97.3 µM | > 100 µM
5 | NCc1ccccc1-c1c2nc(c(-c3ccccc3CN)c3ccc([nH]3)c(-c3ccccc3CN)c3nc(c(-c4ccccc4CN)c4ccc1[nH]4)C=C3)C=C2 | 46.5 µM | 40.9 µM |  |  |  |  | 8.81 µM | 
6 | CCC(/C=C/C1OC(=O)C=CC1C)=C\C(C)C/C=C/C(C)=C/C(C)C(=O)C(C)C(O)C(C)C/C(C)=C/C(=O)O (stereo not given) |  | 14.3 µM |  | 4.18 µM | 4.74 µM | 6.6 µM | 16.3 µM | 
7 | CC(OC(C)(C)C)[C@H](NC(=O)OCC(Cl)(Cl)Cl)C(=O)O (stereo not given in full) | > 100 µM | > 100 µM | > 100 µM | > 100 µM |  |  |  | 
